Reference: PubChem BioAssay (NCI)
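Test compounds were applied to cells in 96-well plates for 48 hours at 5 doses. TGI marks complete inhibition of growth.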

Legend:
Assay in all cases: inhibition of tumour cell growth, NCI panel, 48 h
HL-60(TB) leukemia = test system: HL-60(TB) leukemia
UACC-257 melanoma = test system: UACC-257 melanoma
DLD-1 colon = test system: DLD-1 colon
CCRF-CEM leukemia = test system: CCRF-CEM leukemia
COLO 205 colon = test system: COLO 205 colon
OVCAR-3 ovarian = test system: OVCAR-3 ovarian
M19-MEL melanoma = test system: M19-MEL melanoma
U251 CNS = test system: U251 CNS
UACC-62 melanoma = test system: UACC-62 melanoma
HCC-2998 colon = test system: HCC-2998 colon
OVCAR-4 ovarian = test system: OVCAR-4 ovarian
A498 renal = test system: A498 renal
ACHN renal = test system: ACHN renal
786-0 renal = test system: 786-0 renal
DMS 114 small cell lung = test system: DMS 114 small cell lung
DMS 273 small cell lung = test system: DMS 273 small cell lung
KM20L2 colon = test system: KM20L2 colon
SNB-78 CNS = test system: SNB-78 CNS
K-562 leukemia = test system: K-562 leukemia
SF-539 CNS = test system: SF-539 CNS
HOP-18 NSCLC = test system: HOP-18 NSCLC
EKVX NSCLC = test system: EKVX NSCLC
NCI-H460 lung = test system: NCI-H460 lung
SNB-75 CNS = test system: SNB-75 CNS
UO-31 renal = test system: UO-31 renal
HT29 colon = test system: HT29 colon
HOP-92 NSCLC = test system: HOP-92 NSCLC
SF-295 CNS = test system: SF-295 CNS
IGROV1 ovarian = test system: IGROV1 ovarian
HCT-15 colon = test system: HCT-15 colon
NCI-H23 lung = test system: NCI-H23 lung
HOP-62 NSCLC = test system: HOP-62 NSCLC
SNB-19 CNS = test system: SNB-19 CNS
LXFL 529 NSCLC = test system: LXFL 529 NSCLC
CAKI-1 renal = test system: CAKI-1 renal
SK-MEL-28 melanoma = test system: SK-MEL-28 melanoma
SK-MEL-2 melanoma = test system: SK-MEL-2 melanoma
RPMI-8226 leukemia = test system: RPMI-8226 leukemia
SN12C renal = test system: SN12C renal
OVCAR-8 ovarian = test system: OVCAR-8 ovarian
RXF 393 renal = test system: RXF 393 renal
KM12 colon = test system: KM12 colon
SR leukemia = test system: SR leukemia
HCT-116 colon = test system: HCT-116 colon
SW-620 colon = test system: SW-620 colon
A549 NSCLC = test system: A549 NSCLC
MOLT-4 leukemia = test system: MOLT-4 leukemia
SF-268 CNS = test system: SF-268 CNS
TK-10 renal = test system: TK-10 renal
MALME-3M melanoma = test system: MALME-3M melanoma
LOX IMVI melanoma = test system: LOX IMVI melanoma
M14 melanoma = test system: M14 melanoma
NCI-H522 lung = test system: NCI-H522 lung
OVCAR-5 ovarian = test system: OVCAR-5 ovarian
SK-MEL-5 melanoma = test system: SK-MEL-5 melanoma
SK-OV-3 ovarian = test system: SK-OV-3 ovarian
NCI-H226 lung = test system: NCI-H226 lung

COC1/C(=C\c2ccccc2I)c2ccccc2N1C(C)=O (centres undefined)
TGI (HL-60(TB) leukemia): 16.1 µM | TGI (UACC-257 melanoma): 44.1 µM | TGI (DLD-1 colon): 43.4 µM | TGI (CCRF-CEM leukemia): 59.1 µM | TGI (COLO 205 colon): 31.5 µM | TGI (OVCAR-3 ovarian): 31.2 µM | TGI (M19-MEL melanoma): 42.4 µM | TGI (U251 CNS): 42.6 µM | TGI (UACC-62 melanoma): 26.7 µM | TGI (HCC-2998 colon): 33.9 µM | TGI (OVCAR-4 ovarian): 32.1 µM | TGI (A498 renal): 30.1 µM | TGI (ACHN renal): > 100 µM | TGI (786-0 renal): 33.3 µM | TGI (DMS 114 small cell lung): 38.7 µM | TGI (DMS 273 small cell lung): 27.1 µM | TGI (KM20L2 colon): 30 µM | TGI (SNB-78 CNS): 82.5 µM | TGI (K-562 leukemia): 53.3 µM | TGI (SF-539 CNS): 31.2 µM | TGI (HOP-18 NSCLC): 38.1 µM | TGI (EKVX NSCLC): 39.6 µM | TGI (NCI-H460 lung): 33.5 µM | TGI (SNB-75 CNS): 55 µM | TGI (UO-31 renal): 9.91 µM | TGI (HT29 colon): 37.1 µM | TGI (HOP-92 NSCLC): 8.99 µM | TGI (SF-295 CNS): 29.2 µM | TGI (IGROV1 ovarian): 39.6 µM | TGI (HCT-15 colon): 37.4 µM | TGI (NCI-H23 lung): 36.5 µM | TGI (HOP-62 NSCLC): 32.7 µM | TGI (SNB-19 CNS): 60.4 µM | TGI (LXFL 529 NSCLC): 87.4 µM | TGI (CAKI-1 renal): 50 µM | TGI (SK-MEL-28 melanoma): 38.3 µM | TGI (SK-MEL-2 melanoma): 32.5 µM | TGI (RPMI-8226 leukemia): 39.1 µM | TGI (SN12C renal): 28.8 µM | TGI (OVCAR-8 ovarian): > 100 µM | TGI (RXF 393 renal): 22.3 µM | TGI (KM12 colon): 29 µM | TGI (SR leukemia): 42.9 µM | TGI (HCT-116 colon): 26.8 µM | TGI (SW-620 colon): 39.2 µM | TGI (A549 NSCLC): 35.8 µM | TGI (MOLT-4 leukemia): 35.8 µM

CN(C)CC/C(=N\Nc1ccc(Cl)cc1)c1ccccc1
TGI (SF-268 CNS): 3.67 µM | TGI (TK-10 renal): 2.32 µM | TGI (HL-60(TB) leukemia): 2.17 µM | TGI (UACC-257 melanoma): 3.35 µM | TGI (DLD-1 colon): 3.74 µM | TGI (CCRF-CEM leukemia): 11.2 µM | TGI (COLO 205 colon): 3.27 µM | TGI (OVCAR-3 ovarian): 3.15 µM | TGI (M19-MEL melanoma): 3.2 µM | TGI (MALME-3M melanoma): 3.95 µM | TGI (LOX IMVI melanoma): 0.691 µM | TGI (U251 CNS): 1.74 µM | TGI (UACC-62 melanoma): 2.07 µM | TGI (OVCAR-4 ovarian): 7.05 µM | TGI (A498 renal): 10.8 µM | TGI (ACHN renal): 2.59 µM | TGI (786-0 renal): 3.88 µM | TGI (DMS 114 small cell lung): 4.45 µM | TGI (DMS 273 small cell lung): 1.61 µM | TGI (KM20L2 colon): 0.349 µM | TGI (SNB-78 CNS): 5.13 µM | TGI (K-562 leukemia): 1.03 µM | TGI (M14 melanoma): 3.17 µM | TGI (SF-539 CNS): 3.65 µM | TGI (HOP-18 NSCLC): 7.78 µM | TGI (NCI-H522 lung): 3.78 µM | TGI (EKVX NSCLC): 4.35 µM | TGI (OVCAR-5 ovarian): 2.66 µM | TGI (NCI-H460 lung): 2.45 µM | TGI (SNB-75 CNS): 6.45 µM | TGI (UO-31 renal): 0.986 µM | TGI (HT29 colon): 3 µM | TGI (SF-295 CNS): 1.25 µM | TGI (IGROV1 ovarian): 4.67 µM | TGI (HCT-15 colon): 1.23 µM | TGI (NCI-H23 lung): 3.93 µM | TGI (HOP-62 NSCLC): 3.62 µM | TGI (SNB-19 CNS): 6.91 µM | TGI (LXFL 529 NSCLC): 0.373 µM | TGI (SK-MEL-5 melanoma): 3.27 µM | TGI (SK-MEL-28 melanoma): 2.92 µM | TGI (SK-MEL-2 melanoma): 4.58 µM | TGI (RPMI-8226 leukemia): 3.13 µM | TGI (SN12C renal): 4.13 µM | TGI (OVCAR-8 ovarian): 11.5 µM | TGI (SK-OV-3 ovarian): 7.04 µM | TGI (RXF 393 renal): 10.3 µM | TGI (KM12 colon): 2.93 µM | TGI (SR leukemia): 4.4 µM | TGI (HCT-116 colon): 2.6 µM | TGI (SW-620 colon): 2.37 µM | TGI (A549 NSCLC): 3.29 µM | TGI (MOLT-4 leukemia): 10.2 µM

Cn1nc(-c2cccc(-c3nn(C)c(=NCCO)s3)n2)sc1=NCCO
TGI (SF-268 CNS): > 100 µM | TGI (HL-60(TB) leukemia): > 100 µM | TGI (UACC-257 melanoma): > 100 µM | TGI (NCI-H226 lung): > 100 µM | TGI (DLD-1 colon): > 100 µM | TGI (CCRF-CEM leukemia): > 100 µM | TGI (COLO 205 colon): > 100 µM | TGI (M19-MEL melanoma): > 100 µM | TGI (LOX IMVI melanoma): > 100 µM | TGI (U251 CNS): > 100 µM | TGI (UACC-62 melanoma): > 100 µM | TGI (OVCAR-4 ovarian): > 100 µM | TGI (A498 renal): > 100 µM | TGI (ACHN renal): > 100 µM | TGI (786-0 renal): > 100 µM | TGI (DMS 114 small cell lung): > 100 µM | TGI (DMS 273 small cell lung): > 100 µM | TGI (KM20L2 colon): > 100 µM | TGI (SNB-78 CNS): > 100 µM | TGI (K-562 leukemia): > 100 µM | TGI (M14 melanoma): > 100 µM | TGI (SF-539 CNS): > 100 µM | TGI (HOP-18 NSCLC): > 100 µM | TGI (NCI-H522 lung): > 100 µM | TGI (EKVX NSCLC): > 100 µM | TGI (OVCAR-5 ovarian): > 100 µM | TGI (NCI-H460 lung): > 100 µM | TGI (SNB-75 CNS): > 100 µM | TGI (HT29 colon): > 100 µM | TGI (HOP-92 NSCLC): > 100 µM | TGI (SF-295 CNS): > 100 µM | TGI (IGROV1 ovarian): > 100 µM | TGI (HCT-15 colon): > 100 µM | TGI (NCI-H23 lung): > 100 µM | TGI (HOP-62 NSCLC): > 100 µM | TGI (SNB-19 CNS): > 100 µM | TGI (LXFL 529 NSCLC): > 100 µM | TGI (SK-MEL-5 melanoma): > 100 µM | TGI (SK-MEL-28 melanoma): > 100 µM | TGI (RPMI-8226 leukemia): > 100 µM | TGI (SN12C renal): > 100 µM | TGI (OVCAR-8 ovarian): > 100 µM | TGI (RXF 393 renal): > 100 µM | TGI (KM12 colon): > 100 µM | TGI (SR leukemia): > 100 µM | TGI (HCT-116 colon): > 100 µM | TGI (SW-620 colon): > 100 µM | TGI (A549 NSCLC): > 100 µM | TGI (MOLT-4 leukemia): > 100 µM
